Measured values taken from article PMC10356948, “Crystal structures of herbicide-detoxifying esterase reveal a lid loop affecting substrate binding and activity” (Nature Communications, 2023).

Key:
[1] = target: T1, SulE (Hansschlegelia zhihuaiae, UniProt G9I933); experiment: SPR (Biacore T200, protein amine-coupled to CM7 chip), steady-state affinity; type: binding
T1 construct: pET-29a(+), E. coli BL21(DE3), C-terminal His6 tag; full-length precursor 398 aa, predicted signal peptide cleavage Ala37/Glu38; homodimer, lid loop of one subunit covers active site of the other; residues 12-360 (mature count) seen in crystal

[2] = target: T2, SulE (Hansschlegelia zhihuaiae, UniProt G9I933, P80R); experiment: as above; type: binding
T2 construct: pET-29a(+), E. coli BL21(DE3), C-terminal His6 tag; full-length precursor 398 aa, predicted signal peptide cleavage Ala37/Glu38; homodimer, lid loop of one subunit covers active site of the other; residues 12-360 (mature count) seen in crystal

[3] = target: T1, SulE; experiment: X-ray crystal structure (co-crystal with CE, hydrolysed in crystallisation); type: binding; settings: 5 mM CE, 4 °C, pH 5.5; active site
[4] = target: T3, SulE (Hansschlegelia zhihuaiae, UniProt G9I933, S245A/H369A); experiment: X-ray crystal structure (co-crystal); type: binding; settings: 5 mM substrate, 4 °C, pH 7.0; active site, catalytically dead mutant
T3 construct: pET-29a(+), E. coli BL21(DE3), C-terminal His6 tag; full-length precursor 398 aa, predicted signal peptide cleavage Ala37/Glu38; homodimer, lid loop of one subunit covers active site of the other; residues 12-360 (mature count) seen in crystal

[5] = target: T4, SulE (Hansschlegelia zhihuaiae, UniProt G9I933, P80R/S245A/H369A); experiment: X-ray crystal structure (co-crystal); type: binding; settings: 5 mM substrate, 4 °C, pH 7.0; active site, catalytically dead mutant
T4 construct: pET-29a(+), E. coli BL21(DE3), C-terminal His6 tag; full-length precursor 398 aa, predicted signal peptide cleavage Ala37/Glu38; homodimer, lid loop of one subunit covers active site of the other; residues 12-360 (mature count) seen in crystal

[6] = target: SulE (wild-type esterase from Hansschlegelia zhihuaiae S113) (Hansschlegelia zhihuaiae S113); experiment: crystal structure; X-ray crystal structures of purified SulE and mutants; apo-SulE at 1.46 Å, space group P21, two monomers in the asymmetric unit; sitting-drop vapor diffusion at 4 °C; apo-SulE in 0.1 M citric acid-trisodium citrate pH 5.5, 20% PEG 4000; cocrystals and P44R mutants in 0.1 M ammonium tartrate dibasic pH 7.0, 12-15% PEG 3350, with 5 mM substrate

T1 sequence (G9I933 entry or part of it): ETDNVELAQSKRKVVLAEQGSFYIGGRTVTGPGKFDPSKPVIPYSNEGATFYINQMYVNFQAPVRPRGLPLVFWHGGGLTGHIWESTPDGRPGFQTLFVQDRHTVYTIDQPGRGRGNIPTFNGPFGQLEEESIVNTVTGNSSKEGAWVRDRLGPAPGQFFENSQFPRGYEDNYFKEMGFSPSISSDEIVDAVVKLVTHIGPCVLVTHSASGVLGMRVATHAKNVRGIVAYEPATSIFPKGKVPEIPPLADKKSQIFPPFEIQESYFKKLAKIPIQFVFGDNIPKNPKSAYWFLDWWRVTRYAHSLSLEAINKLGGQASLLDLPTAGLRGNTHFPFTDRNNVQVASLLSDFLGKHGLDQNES
T3 sequence (G9I933 entry or part of it S245A/H369A): as the sequence (G9I933 entry or part of it) above, with S208A, H332A counted along it
T2 sequence (G9I933 entry or part of it P80R): as the sequence (G9I933 entry or part of it) above, with P43R counted along it
T4 sequence (G9I933 entry or part of it P80R/S245A/H369A): as the sequence (G9I933 entry or part of it) above, with P43R, S208A, H332A counted along it

Molecule | Kd [1] | Kd [2] | X-ray crystal structure (co-crystal) [4] | also measured
COC(=O)c1ccccc1CS(=O)(=O)NC(=O)Nc1nc(OC)cc(OC)n1 [BM, bensulfuron-methyl] | 6.34 µM | 5.75 µM | – | –
COc1cc(Cl)nc(NC(=O)NS(=O)(=O)c2ccccc2C(=O)O)n1 [CA, chlorimuron acid] | – | – | – | X-ray crystal structure (co-crystal with CE, hydrolysed in crystallisation) [3]: crystal structures of wild-type SulE in complex with CA
COC(=O)c1ccccc1S(=O)(=O)NC(=O)N(C)c1nc(C)nc(OC)n1 [TrM, tribenuron-methyl] | – | – | mutant S209A/H333A in complex with MM, SM, TM, TrM, EM, BM, and CE | –
COC(=O)c1sccc1S(=O)(=O)NC(=O)Nc1nc(C)nc(OC)n1 [TM, thifensulfuron-methyl] | 8.85 µM | 7.25 µM | – | –
CCOC(=O)c1ccccc1S(=O)(=O)NC(=O)Nc1nc(Cl)cc(OC)n1 [CE, chlorimuron-ethyl] | 5.29 µM | 1.36 µM | – | –
COC(=O)c1ccccc1S(=O)(=O)NC(=O)Nc1nc(C)nc(OC)n1 [MM, metsulfuron-methyl] | 5.58 µM | 2.89 µM | mutant S209A/H333A in complex with MM, SM, TM, TrM, EM, BM, and CE | X-ray crystal structure (co-crystal) [5]: the triple mutant P44R/S209A/H333A in complex with MM, CE, and TM
SulE (wild-type esterase from Hansschlegelia zhihuaiae S113) (enzyme) | – | – | – | stoichiometry N [6]: 2
CCOc1nc(NC)nc(NC(=O)NS(=O)(=O)c2ccccc2C(=O)OC)n1 [EM, ethametsulfuron-methyl] | – | – | mutant S209A/H333A in complex with MM, SM, TM, TrM, EM, BM, and CE | –
